The subject of this test is mice. Put plainly: Neuropharmacological Assay (SmartCube): automated behavioral signature of compound-treated mice compared with a database of reference drug classes. In kind it is in vivo. The conditions noted are these: for minimal effective dose: Mus musculus, ip; for minimal effective dose / MED / MED (minimal effective dose): i.p., that dose is shown. The method in brief: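 Mice dosed i.p. 15 min before SmartCube testing, with compound in N-methyl-2-pyrrolidone/polyethylene glycol/propylene glycol. Video-captured behaviour is compared with a reference-drug signature database to give per-class probabilities, reported at 3.0 mg/kg. MED, from doses usually 0.3–10 mg/kg, is the lowest dose giving ≥45% total activity.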

Where [1] appears, read: dose having 45% or more total activity in SmartCube, if only one dose was tested, read-out: MED (minimal effective dose).
[2] abbreviates: probability that activity matches this class of agents, 3.0 mg/kg i.p., 15 min before test.
[3] abbreviates: probability that activity matches this class of agents, 3.0 mg/kg i.p., 15 min before test, hydrochloride, 3 mg/kg.
The mark [4] stands for this setting: SmartCube probability class, 3.0 mg/kg dose, i.p. 15 min before the behavioral test.
The mark [5] stands for this setting: SmartCube probability class, 3.0 mg/kg dose, i.p. 15 min before the behavioral test, hydrochloride, 3 mg/kg.
The mark [6] stands for this setting: minimal effective dose: dose having 45% or more total activity in SmartCube, if only one dose was tested, hydrochloride.
Setting [7] is: minimal effective dose: dose having 45% or more total activity in SmartCube, if only one dose tested, read-out: MED.
The mark [8] stands for this setting: SmartCube class probability, 3.0 mg/kg i.p., 15 min before test.
Setting [9] is: SmartCube class probability, 3.0 mg/kg i.p., 15 min before test, hydrochloride, 3 mg/kg.
The mark [10] stands for this setting: dose having 45% or more total activity in SmartCube, if only one dose was tested, hydrochloride.

Structures can show the parent of a compound that is named as a salt. Where two headings read alike, the source gives them in different places.

With `Cc1sc2c(c1C)CCC(N)C2` (single isomer, unassigned) [Compound 67, 2,3-dimethyl-4,5,6,7-tetrahydrobenzothiophen-6-amine hydrochloride], the minimal effective dose under setting [1] amounted to 3 mg/kg. Under setting [2], the AG result is listed as “ND (^ <4%)”, the AN entry is given as “ND (^ <4%)”, the AP entry is on record as “ND (^ <4%)” and the AX entry is recorded as “ND (^ <4%)”. Under setting [2], the CE entry was “ND (^ <4%)”, the MS entry is “ND (^ <4%)”, the PS entry is listed as “ND (^ <4%)” and the SH entry is reported as “ND (^ <4%)”. The UK result under setting [2] was “ND (^ <4%)”. Under setting [3], the AD result is recorded as “+++ (≥49%)” and the HL entry is given as “ND (^ <4%)”.

As to `CNC1COc2c(C(F)(F)F)csc2C1` (single isomer, unassigned) [Compound 309, N-methyl-3-(trifluoromethyl)-6,7-dihydro-5H-thieno[3,2-b]pyran-6-amine hydrochloride], under setting [4], the AD entry is reported as “ND (^ <4%)”, the AG entry was “ND (^ <4%)”, the AN entry is reported as “ND (^ <4%)” and the AP result was “ND (^ <4%)”. Moreover, under setting [4], the AX result is on record as “ND (^ <4%)”, the CE result is “ND (^ <4%)”, the HL result was “ND (^ <4%)” and the MS entry is listed as “ND (^ <4%)”. Besides, under setting [4], the PS entry is given as “ND (^ <4%)” and the SH result is “ND (^ <4%)”. Moreover, under setting [5], the UK result is “ND (^ <4%)”. Under setting [6], this compound came in with an MED of 1 mpk.

Take `CNC1Cc2scc(C3CC3)c2C1` (single isomer, unassigned) [Compound 321, 3-cyclopropyl-N-methyl-5,6-dihydro-4H-cyclopenta[b]thiophen-5-amine hydrochloride]: under setting [4], the AD result is reported as “ND (^ <4%)”, the AG entry is “ND (^ <4%)”, the AN result is reported as “ND (^ <4%)” and the CE entry is listed as “ND (^ <4%)”. Moreover, under setting [4], the HL entry is “ND (^ <4%)”, the MS entry is given as “ND (^ <4%)”, the PS result is recorded as “ND (^ <4%)” and the SH result is given as “ND (^ <4%)”. In addition, under setting [5], the AP result is given as “+ (≥4%)”, the AX entry is on record as “++++ (≥74%)” and the UK entry is “ND (^ <4%)”. The compound further yielded an MED under setting [6] of 3 mpk.

`CC1(N)CCc2c(C(F)(F)F)csc2C1.Cl` (single isomer, unassigned) [Compound 241, 6-methyl-3-(trifluoromethyl)-5,7-dihydro-4H-benzothiophen-6-amine hydrochloride]: the minimal effective dose under setting [7] worked out at 3 mg/kg. Besides, under setting [8], the AG result is reported as “ND (^ <4%)”, the AN result was “ND (^ <4%)”, the AP result is given as “ND (^ <4%)” and the AX entry was “ND (^ <4%)”. For the same compound, under setting [8], the CE entry is “ND (^ <4%)”, the HL result is on record as “ND (^ <4%)”, the MS entry is reported as “ND (^ <4%)” and the PS entry was “ND (^ <4%)”. Also, the SH result under setting [8] was “ND (^ <4%)”. Under setting [9], the AD result was “+ (≥4%)” and the UK result is “++++ (≥74%)”.

Turning to `CN(C)C1CCc2ccsc2C1.Cl` (single isomer, unassigned) [Compound 16, N,N-dimethyl-4,5,6,7-tetrahydrobenzothiophen-6-amine hydrochloride], the “MED (minimal effective dose)” value under setting [10] turned out to be 1.0 mpk. Further, under setting [2], the AD result is “ND (^ <4%)”, the AG entry is “ND (^ <4%)”, the AN result was “ND (^ <4%)” and the HL entry is reported as “ND (^ <4%)”. Also, under setting [2], the MS entry was “ND (^ <4%)”, the PS entry is listed as “ND (^ <4%)”, the SH result is given as “ND (^ <4%)” and the UK entry is given as “ND (^ <4%)”. Under setting [3], the AP entry was “ND (^ <4%)”, the AX entry was “++++ (≥74%)” and the CE entry is “ND (^ <4%)”.

`CNC1CCc2c(F)sc(F)c2C1` (single isomer, unassigned) [Compound 77, 1,3-difluoro-N-methyl-4,5,6,7-tetrahydro-2-benzothiophen-5-amine hydrochloride]: the “MED (minimal effective dose)” value under setting [10] is reported as 0.3 mpk. Under setting [2], the AG entry was “ND (^ <4%)”, the AN result is on record as “ND (^ <4%)”, the AP entry is listed as “++ (≥24%)” and the CE result is on record as “ND (^ <4%)”. In addition, under setting [2], the HL entry is reported as “ND (^ <4%)”, the MS result is “ND (^ <4%)”, the PS result was “ND (^ <4%)” and the SH entry was “ND (^ <4%)”. For the same compound, under setting [3], the AD entry is listed as “++ (≥24%)”, the AX entry was “+ (≥4%)” and the UK result is recorded as “ND (^ <4%)”.

`CNC1CCc2c(csc2Cl)C1` (single isomer, unassigned) [Compound 57, 1-chloro-N-methyl-4,5,6,7-tetrahydro-2-benzothiophen-5-amine hydrochloride]: the minimal effective dose under setting [1] worked out at 1 mg/kg. Also, under setting [2], the AG entry is reported as “ND (^ <4%)”, the AN entry is “ND (^ <4%)”, the AX result is reported as “ND (^ <4%)” and the CE entry is given as “ND (^ <4%)”. Under setting [2], the HL result is on record as “ND (^ <4%)”, the PS result is recorded as “ND (^ <4%)” and the SH result is reported as “ND (^ <4%)”. For the same compound, under setting [3], the AD entry is “++ (≥24%)”, the AP result is “++ (≥24%)”, the MS entry is “ND (^ <4%)” and the UK entry is recorded as “+ (≥4%)”.

Regarding `CNC1CCc2c(F)sc(C)c2C1` (single isomer, unassigned) [Compound 211, 1-fluoro-N, 3-dimethyl-4,5,6,7-tetrahydro-2-benzothiophen-5-amine hydrochloride], under setting [8], the AD entry was “ND (^ <4%)”, the AG entry was “ND (^ <4%)”, the AN entry is reported as “ND (^ <4%)” and the AX result is “ND (^ <4%)”. Also, under setting [8], the CE entry is given as “ND (^ <4%)”, the HL entry is “ND (^ <4%)”, the MS entry is reported as “ND (^ <4%)” and the PS entry was “ND (^ <4%)”. Moreover, under setting [8], the SH result is given as “ND (^ <4%)”. Under setting [9], the AP result is on record as “++++ (≥74%)” and the UK entry was “ND (^ <4%)”. Under “minimal effective dose: dose having 45% or more total activity in SmartCube, if only one dose tested, hydrochloride”, this compound had an MED of less than 3 mpk.

As to `CNC1COc2c(C3CC3)csc2C1` (single isomer, unassigned) [Compound 324, 3-cyclopropyl-N-methyl-6,7-dihydro-5H-thieno[3,2-b]pyran-6-amine hydrochloride], the minimal effective dose (minimal effective dose: dose having 45% or more total activity in SmartCube, if only one dose was tested, read-out: MED) is 3 mg/kg. For the same compound, under setting [4], the AG result is recorded as “ND (^ <4%)”, the AN result is on record as “ND (^ <4%)”, the AP entry is on record as “ND (^ <4%)” and the AX entry is “ND (^ <4%)”. Under setting [4], the CE result is “ND (^ <4%)”, the HL entry is listed as “ND (^ <4%)”, the MS result was “ND (^ <4%)” and the PS entry is given as “ND (^ <4%)”. Moreover, the SH entry under setting [4] was “ND (^ <4%)”. Moreover, under setting [5], the AD result is “+ (≥4%)” and the UK result was “ND (^ <4%)”.

As to `CNC1CCc2scc(-c3ccccc3)c2C1` (single isomer, unassigned) [Compound 232, N-methyl-3-phenyl-4,5,6,7-tetrahydrobenzothiophen-5-amine hydrochloride], the minimal effective dose under setting [7] is more than 3 mg/kg. Under setting [8], the AD result was “ND (^ <4%)”, the AG result is “ND (^ <4%)”, the AN result is on record as “ND (^ <4%)” and the AP result is given as “ND (^ <4%)”. Under setting [8], the AX entry is “ND (^ <4%)”, the CE result is “ND (^ <4%)”, the HL result is “ND (^ <4%)” and the MS result is reported as “ND (^ <4%)”. Under setting [8], the PS result is given as “ND (^ <4%)” and the SH result is recorded as “ND (^ <4%)”. Further, the UK entry under setting [9] is recorded as “+ (≥4%)”.

With `CNC1(C)CCc2csc(C(F)(F)F)c2C1` (centres unmarked) [Compound 141, N, 5-dimethyl-3-(trifluoromethyl)-6,7-dihydro-4H-2-benzothiophen-5-amine hydrochloride], the minimal effective dose under setting [7] worked out at 3 mg/kg. Also, under setting [8], the AD entry was “+ (≥4%)”, the AG entry is given as “ND (^ <4%)”, the AN entry is listed as “ND (^ <4%)” and the AP result is reported as “ND (^ <4%)”. Under setting [8], the AX result is given as “+++ (≥49%)”, the CE result was “ND (^ <4%)”, the HL entry was “ND (^ <4%)” and the MS result is on record as “ND (^ <4%)”. In addition, under setting [8], the PS entry is “ND (^ <4%)”, the SH entry was “ND (^ <4%)” and the UK entry was “ND (^ <4%)”.

For `Cc1cc2c(s1)CCC(N)C2` (centres unmarked) [Compound 185, 2-methyl-4,5,6,7-tetrahydrobenzothiophen-5-amine hydrochloride], under setting [8], the AD result was “ND (^ <4%)”, the AG result is reported as “ND (^ <4%)”, the AN entry is “ND (^ <4%)” and the AP entry is given as “ND (^ <4%)”. Further, under setting [8], the AX result was “ND (^ <4%)”, the CE entry is reported as “ND (^ <4%)”, the HL entry was “ND (^ <4%)” and the MS entry is given as “ND (^ <4%)”. Moreover, under setting [8], the PS entry is “ND (^ <4%)”, the SH result is “ND (^ <4%)” and the UK entry is listed as “++ (≥24%)”.

Source of the values: US20260274814A1, “THIENYL COMPOUNDS FOR THE TREATMENT OF A CENTRAL NERVOUS SYSTEM DISEASE OR DISORDER” (Coreterra Therapeutics, Inc., priority 2023, published 2026).
